According to publication PMC7555970, “Design, Synthesis and Biological Evaluation of Biphenylglyoxamide-Based Small Molecular Antimicrobial Peptide Mimics as Antibacterial Agents” (International Journal of Molecular Sciences, 2020):
Converted amounts (≈) assume the structure as drawn. Like-named read-outs stand apart in the source and are kept apart here.

Key:
[1] = test system: MRC-5 normal human lung fibroblasts; experiment: MTT toxicity assay; assay type: cell-based; settings: 72 h drug incubation, read-out: IC50 against MRC-5 normal human lung fibroblasts
Method: The toxicity of the compounds was measured using an MTT (3-(4,5-dimethylthiazol-2-yl)-2,5-diphenyltetrazolium bromide) (Sigma Aldrich, St Louis, MO, USA) colorimetric assay against normal human lung fibroblasts MRC-5 cells. The cells were cultured in minimal essential medium (MEM; Sigma Aldrich, St Louis, MO, USA) containing 10% foetal bovine serum (FBS). The cells were maintained at 37 °C in 5% CO2 as an adherent monolayer and was passaged upon reaching confluence by standard cell culture techniques. MRC-5 cells were seeded at 5000 cells/well in 96-well plates to ensure full confluence (quiescence) and left overnight to adhere to the plate wells. The adherent cells were treated with 1–500 µM of compounds by dissolving in DMSO and serially diluting with media. The final concentration of DMSO was 0.5% (v/v). After 72 h drug incubation, […] stock MTT solution (5 mg/mL) was added and the cells were incubated for another 3.5–4 h. MTT solution-containing media was carefully aspirated without displacing the purple crystals from the bottom and […] acid-isopropanol was added to all wells and mixed slowly by shaking with an orbital shaker to dissolve the dark blue crystals. The metabolic activity was detected by spectrophotometric analysis by assessing the read absorbance (590/620 nm) on an EnSight plate reader (PerkinElmer, Waltham, MA, USA) and cell viability was expressed as a percentage of untreated control cells. The determination of IC50 values was performed using GraphPad Prism 6 (GraphPad, San Diego, CA, USA). Each experiment was performed in triplicate and was repeated in three independent experiments.

S. aureus (SA38) = experiment: Minimum inhibitory concentration (MIC) assay against S. aureus; assay type: cell-based, Staphylococcus aureus
Method: (§1) The antimicrobial activity of the compounds was evaluated by MIC assay using the procedure described by Clinical and Laboratory Standards Institute (CLSI). A single colony of bacteria was cultured overnight in trypticase soy broth (TSB; Oxoid, Basingstoke, UK) at 37 °C with shaking. The resulting bacterial culture was collected by centrifugation and resuspended in TSB twice. The optical density (OD) of the resulting culture was adjusted to OD660 = 0.1 in TSB (which is equivalent to 10^8 colony forming unit (CFU)/mL bacteria). It was further diluted to 10^6 CFU/mL in TSB. 100 µL of the bacterial solution was then added to wells of a 96-well plate (Costar; Sigma-Aldrich, St Louis, MO, USA) containing 100 µL serially diluted peptide mimic, with final concentration ranging from 1 to 250 µM. Wells with bacteria but no compound were used as negative control while wells with only media were set as blank. The plates were then wrapped with parafilm to prevent evaporation and incubated with shaking at 120 rpm at 37 °C for 18–24 h, and the data were recorded by measuring the OD value at 660 nm using a FLUOstar Omega (BMG Labtech, Mornington, Victoria, Australia) microplate reader. […] Each experiment was performed in triplicate and was repeated in three independent experiments.

E. coli (K12) = experiment: Minimum inhibitory concentration (MIC) assay against E. coli; assay type: cell-based; settings: Escherichia coli
Method: as §1

P. aeruginosa (PA01) = experiment: Minimum inhibitory concentration (MIC) assay against P. aeruginosa; assay type: cell-based; settings: Pseudomonas aeruginosa
Method: as §1

[2] = test system: established S. aureus biofilms; experiment: Biofilm disruption assay (crystal violet staining), S. aureus; assay type: cell-based, Staphylococcus aureus; settings: any tested concentration (1×, 2× and 4× MIC), 24 h treatment
Method: Bacterial cultures (S. aureus and E. coli) were grown in Muller Hinton broth (MHB; Oxoid, Basingstoke, UK) media overnight at 37 °C with shaking at 120 rpm. Cultures were diluted (1:20) in MHB medium and 200 µL aliquots were dispensed to wells in a flat bottom 96-well plate (Costar; Sigma-Aldrich, St Louis, MO, USA). Biofilm was then grown in the 96-well plate at 37 °C overnight. After that, loosely bound cells were washed away with 1x phosphate-buffered saline (PBS) and cultures were then supplemented with different concentrations of test compounds dissolved in DMSO and incubated for a further 24 h with shaking at 120 rpm. Biofilms adhered on the plate substratum were quantified using crystal violet staining as described previously. The experiment was performed in triplicate.

Row | SMILES | IC50 ([1]; Homo sapiens, MRC5, 72 h) | MIC (S. aureus (SA38); Staphylococcus aureus) | MIC (S. aureus (SA38)) | further results
1 | CCCCCCCCS(=O)(=O)Nc1ccc(CCCC)cc1C(=O)C(=O)NCCCN(C)C [Compound 13e, 3-(2-(5-Butyl-2-(octylsulfonamido)phenyl)-2-oxoacetamido)-N,N-dimethylpropan-1-aminium chloride] | 23.6 µM | 32 µM |  | 
2 | CCCCCCCCS(=O)(=O)Nc1ccc(-c2ccccc2)cc1C(=O)C(=O)NCCC[N+](C)(C)C [Compound 15a, N,N,N-Trimethyl-3-(2-(4-(octylsulfonamido)-[1,1’-biphenyl]-3-yl)-2-oxoacetamido)propan-1-aminium iodide] | 50.7 µM | 16 µM |  | MIC (E. coli (K12)): 32 µM; MIC (P. aeruginosa (PA01)): 125 µM
3 | CN(C)CCCNC(=O)C(=O)c1cc(-c2ccccc2)ccc1NC(=O)c1ccc2ccccc2c1.Cl [Compound 26, 3-(2-(4-(2-Naphthamido)-[1,1’-biphenyl]-3-yl)-2-oxoacetamido)-N,N-dimethylpropan-1-aminium chloride] |  |  | > 250 µM | 
4 | CCCCCCCCS(=O)(=O)Nc1ccc(-c2ccc(F)cc2)cc1C(=O)C(=O)NCCCN(C)C [Compound 11b, N-(3-(Dimethylamino)propyl)-2-(4’-fluoro-4-(octylsulfonamido)-[1,1’-biphenyl]-3-yl)-2-oxoacetamide] |  |  | 16 µM (≈ 8.31 µg/mL) | 
5 | CCCCCCCCS(=O)(=O)Nc1ccc(-c2ccc3ccccc3c2)cc1C(=O)C(=O)NCCCN(C)C [Compound 13d, N,N-Dimethyl-3-(2-(5-(naphthalen-2-yl)-2-(octylsulfonamido)phenyl)-2-oxoacetamido)propan-1-aminium chloride] |  | 8 µM |  | IC50 [1]: 19.7 µM
6 | CCCCCCCCS(=O)(=O)Nc1ccc(-c2ccc(Cl)cc2)cc1C(=O)C(=O)NCCCN(C)C [Compound 13c, 3-(2-(4’-Chloro-4-(octylsulfonamido)-[1,1’-biphenyl]-3-yl)-2-oxoacetamido)-N,N-dimethylpropan-1-aminium chloride] | 25.5 µM | 16 µM |  | 
7 | CCCCCCCCS(=O)(=O)Nc1ccc(CCCC)cc1C(=O)C(=O)NCCCN(C)C [Compound 11e, 2-(5-Butyl-2-(octylsulfonamido)phenyl)-N-(3-(dimethylamino)propyl)-2-oxoacetamide] |  |  | 63 µM (≈ 30.3 µg/mL) | 
8 | CCCCCCCCS(=O)(=O)Nc1ccc(-c2ccc(F)cc2)cc1C(=O)C(=O)NCCCN(C)C [Compound 13b, 3-(2-(4’-Fluoro-4-(octylsulfonamido)-[1,1’-biphenyl]-3-yl)-2-oxoacetamido)-N,N-dimethylpropan-1-aminium chloride] |  | 16 µM |  | 
9 | CCCCS(=O)(=O)Nc1ccc(-c2ccccc2)cc1C(=O)C(=O)NCCCN(C)C [Compound 12a, 2-(4-(Butylsulfonamido)-[1,1’-biphenyl]-3-yl)-N-(3-(dimethylamino)propyl)-2-oxoacetamide] |  | > 250 µM |  | 
10 | CCCCCCCCS(=O)(=O)Nc1ccc(-c2ccc(Cl)cc2)cc1C(=O)C(=O)NCCCNC(=N)N.Cl [Compound 22c, 2-(4’-Chloro-4-(octylsulfonamido)-[1,1’-biphenyl]-3-yl)-N-(3-guanidinopropyl)-2-oxoacetamide hydrochloride] | 95 µM | 8 µM |  | disruption of preformed S. aureus biofilms [2]: failed to disrupt any; MIC (E. coli (K12)): 63 µM; MIC (P. aeruginosa (PA01)): 250 µM
11 | CCCCCCCCS(=O)(=O)Nc1ccc(-c2ccccc2)cc1C(=O)C(=O)NCCCN(C)C [Compound 13a, N,N-Dimethyl-3-(2-(4-(octylsulfonamido)-[1,1’-biphenyl]-3-yl)-2-oxoacetamido)propan-1-aminium chloride] |  | 16 µM |  | IC50 [1]: 25 µM
12 | CCCCCCCCS(=O)(=O)Nc1ccc(-c2ccccc2)cc1C(=O)C(=O)NCCCN(C)C [Compound 11a, N-(3-(Dimethylamino)propyl)-2-(4-(octylsulfonamido)-[1,1’-biphenyl]-3-yl)-2-oxoacetamide] | < 30 µM |  | 24 µM (≈ 12 µg/mL) | IC50 [1]: 28.2 µM
13 | CCCCCCCCS(=O)(=O)Nc1ccc(-c2ccc3ccccc3c2)cc1C(=O)C(=O)NCCCN(C)C [Compound 11d, N-(3-(Dimethylamino)propyl)-2-(5-(naphthalen-2-yl)-2-(octylsulfonamido)phenyl)-2-oxoacetamide] |  |  | 16 µM (≈ 8.83 µg/mL) | 
14 | C[N+](C)(C)CCCNC(=O)C(=O)c1cc(-c2ccccc2)ccc1NC(=O)c1ccc2ccccc2c1 [Compound 27, 3-(2-(4-(2-Naphthamido)-[1,1’-biphenyl]-3-yl)-2-oxoacetamido)-N,N,N-trimethylpropan-1-aminium iodide] |  | 32 µM |  | 
15 | CCCCCCCCS(=O)(=O)Nc1ccc(CCCC)cc1C(=O)C(=O)NCCC[N+](C)(C)C [Compound 15e, 3-(2-(5-Butyl-2-(octylsulfonamido)phenyl)-2-oxoacetamido)-N,N,N-trimethylpropan-1-aminium iodide] | 101 µM | 16 µM |  | MIC (E. coli (K12)): > 250 µM; MIC (P. aeruginosa (PA01)): > 250 µM
16 | CCCCS(=O)(=O)Nc1ccc(-c2ccccc2)cc1C(=O)C(=O)NCCCN(C)C.Cl [Compound 14a, 3-(2-(4-(Butylsulfonamido)-[1,1’-biphenyl]-3-yl)-2-oxoacetamido)-N,N-dimethylpropan-1-aminium chloride] |  |  | > 250 µM | 
17 | CCCCCCCCS(=O)(=O)Nc1ccc(-c2ccc(Cl)cc2)cc1C(=O)C(=O)NCCCN(C)C [Compound 11c, 2-(4’-Chloro-4-(octylsulfonamido)-[1,1’-biphenyl]-3-yl)-N-(3-(dimethylamino)propyl)-2-oxoacetamide] |  |  | 16 µM (≈ 8.58 µg/mL) | 
18 | CCCCCCCCS(=O)(=O)Nc1ccc(-c2ccc(F)cc2)cc1C(=O)C(=O)NCCC[N+](C)(C)C [Compound 15b, 3-(2-(4’-Fluoro-4-(octylsulfonamido)-[1,1’-biphenyl]-3-yl)-2-oxoacetamido)-N,N,N-trimethylpropan-1-aminium iodide] | 190 µM | 16 µM |  | MIC (E. coli (K12)): 32 µM; MIC (P. aeruginosa (PA01)): 63 µM
19 | CCCCS(=O)(=O)Nc1ccc(-c2ccccc2)cc1C(=O)C(=O)NCCC[N+](C)(C)C [Compound 16a, 3-(2-(4-(Butylsulfonamido)-[1,1’-biphenyl]-3-yl)-2-oxoacetamido)-N,N,N-trimethylpropan-1-aminium iodide] |  | > 250 µM |  | 
